Source: patent US12491204B2, “Use of oleanolic acid-28-O-beta-D-glucopyranoside in preparation of anti-colitis drug” (JILIN UNIVERSITY, priority 2023, dated 2025)

How the values were obtained:
[1] = system: DSS-induced UC model mice; test: Inflammatory factor and oxidative stress indicators by ELISA in serum and colon of DSS-induced UC model; format: in vivo, BALB/c male mice; conditions: compared with model group; for IL-6 level / TNF-α level / iNOS level: serum and colon, gavage 5-ASA 100 mg/kg, 28-OA-β-G 5, 10, 20 mg/kg
Experimental: SPF-grade BALB/c male mice (weighting 22-24 g) were purchased from Changchun Yisi Laboratory Animal Technology Co., Ltd. After 1 week of adaptive feeding, the mice were randomly divided into 6 groups (n=10), including: a control group, a model group, a positive drug group (5-ASA, 100 mg/kg), an oleanolic acid-28-O-β-D-glucopyranoside low-dose group (28-OA-β-GL, 5 mg/kg), an oleanolic acid-28-O-β-D-glucopyranoside medium-dose group (28-OA-β-GM, 10 mg/kg), and an oleanolic acid-28-O-β-D-glucopyranoside high-dose group (28-OA-β-GH, 20 mg/kg). The control group was administrated with distilled water, while the other groups were freely allowed to drink a 3.5% dextran sulfate sodium (M.W.: 40,000 Da, DSS) solution for 7 days to induce a UC model. From the Day 4 to Day 10 of modeling, the mice in the control group and the model group were administrated with distilled water by gavage, while the mice in other groups were administrated with a 5-ASA or 28-OA-β-G solution by gavage, respectively. The gavage was performed once a day. The administration volume was 10 ml/kg. After fasting for 12 hours on the Day 10, whole blood was collected from all mice by using an eyeball blood collection method, the mice were killed by cervical dislocation, and colon tissues and spleen tissues were collected. Content determination of inflammatory factor and oxidative stress indicators: serum and colon tissue samples were collected, and the contents of TNF-α, IL-6, and iNOS in the serum and colon were determined using an ELISA kit, while the levels of MPO, SOD, and MDA in the colon were detected.

[2] = system: DSS-induced UC model mice; test: DSS-induced UC model: body weight, DAI score, colon length, spleen coefficient; format: in vivo, BALB/c male mice; conditions: for weight loss rate: 3.5% DSS 7 days, gavage once a day Day 4 to Day 10, 28-OA-β-G 5, 10, 20 mg/kg
Experimental: (§1) SPF-grade BALB/c male mice (weighting 22-24 g) were purchased from Changchun Yisi Laboratory Animal Technology Co., Ltd. After 1 week of adaptive feeding, the mice were randomly divided into 6 groups (n=10), including: a control group, a model group, a positive drug group (5-ASA, 100 mg/kg), an oleanolic acid-28-O-β-D-glucopyranoside low-dose group (28-OA-β-GL, 5 mg/kg), an oleanolic acid-28-O-β-D-glucopyranoside medium-dose group (28-OA-β-GM, 10 mg/kg), and an oleanolic acid-28-O-β-D-glucopyranoside high-dose group (28-OA-β-GH, 20 mg/kg).
(§2) The control group was administrated with distilled water, while the other groups were freely allowed to drink a 3.5% dextran sulfate sodium (M.W.: 40,000 Da, DSS) solution for 7 days to induce a UC model. From the Day 4 to Day 10 of modeling, the mice in the control group and the model group were administrated with distilled water by gavage, while the mice in other groups were administrated with a 5-ASA or 28-OA-β-G solution by gavage, respectively. The gavage was performed once a day. The administration volume was 10 ml/kg. After fasting for 12 hours on the Day 10, whole blood was collected from all mice by using an eyeball blood collection method, the mice were killed by cervical dislocation, and colon tissues and spleen tissues were collected.
Body weight and disease activity index scores: during the experiment, all mice were weighed every day, and the general behavior states of the mice were observed; the weight changes, stool states and hematochezia degrees of the mice were recorded every day, and scored according to the criteria shown in Table 3; and an average disease activity index (DAI) score of the mice in each group per day was calculated according to the formula: DAI=(weight loss score+stool state score+hematochezia degree score)/3.
Spleen coefficient: the spleen tissues were dissected and accurately weighed, and the spleen coefficient was calculated using the formula: spleen coefficient=spleen mass (mg)/mouse weight (g), as shown in FIG. 10. The spleen coefficient also reflected the degree of inflammatory response within the body.

[3] = system: DSS-induced UC model mice; test: FD4 permeability analysis in DSS-induced UC model; format: in vivo, BALB/c male mice; conditions: 20 mg/kg FD4 by gavage 30 minutes before sacrifice; 28-OA-β-G intervention; compared with model group
Experimental: as §1
The control group was administrated with distilled water, while the other groups were freely allowed to drink a 3.5% dextran sulfate sodium (M.W.: 40,000 Da, DSS) solution for 7 days to induce a UC model. […]
FD4 permeability analysis: all mice were administrated with 20 mg/kg FD4 normal saline solution by gavage 30 minutes before sacrifice, whole blood was collected by the eye blood collection method on a sterile ultra-clean table, and the upper serum was taken after centrifugation, and then aspirated into a black 96-well microplate. The fluorescence intensity was detected using a microplate reader at an excitation wavelength of 492 nm and an emission wavelength of 520 nm. […]

[4] = system: Caco-2 cells; test: Transmembrane epithelial resistance (TEER) in LPS-induced Caco-2 cells; format: cell-based, Human; conditions: LPS 1 μg/ml + 28-OA-β-G 8 μM, 24 hours; compared with LPS treatment
Experimental: (§3) (1) Determination of Transmembrane Epithelial Resistance and Inflammatory Factors in Caco-2 Cells
(§4) The Caco-2 cells were inoculated at a density of 1×10^5 cells/ml (400 μl per well) into a Transwell chamber and cultured under 5% CO2 and 37° C. After Day 21, a medium was replaced with a basal MEM medium. […] Resistance values were measured using a transmembrane resistance meter. TEER value=(measured resistance value−control resistance value)×Transwell chamber area, expressed in Ω·cm^2. […]

[5] = system: TNF-α, IL-6, and iNOS in Caco-2 cells; test: Inflammatory factors TNF-α, IL-6, iNOS by ELISA in LPS-induced Caco-2 cell model; format: cell-based, Human; conditions: LPS 1 μg/ml, 24 hours; high-dose groups 8 μM
Experimental: as §3, §4

[6] = system: DSS-induced UC model mice; test: Transmission electron microscope observation of mouse colon tissues; format: in vivo, BALB/c male mice; conditions: 28-OA-β-GH group, 20 mg/kg; compared with model group
Experimental: as §1
as §2, with “collected. […]” for “collected.”

[7] = system: ZO-1, Occludin, Claudin-1, and E-cadherin in Caco-2 cells; test: Expression of tight junction proteins in Caco-2 cells by immunofluorescence; format: cell-based, Human; conditions: 24 hours
Experimental: (2) Determination of Expression Level of Tight Junction Proteins in Caco-2 Cells
Caco-2 cells (1×10^5 cells/ml) were inoculated onto a cell climbing slice in a 24-well plate (with 600 μl of cells per well), and reached confluence within 2 days. The cells were divided into 7 groups: a control group, a model group (LPS 1 μg/ml), a 5-ASA group (LPS 1 μg/ml+5-ASA 50 μM), an LPS+28-OA-β-GL group (LPS 1 μg/ml+28-OA-β-G 2 μM), an LPS+28-OA-β-GM group (LPS 1 μg/ml+28-OA-β-G 4 μM), an LPS+28-OA-β-GH group (LPS 1 μg/ml+28-OA-β-G 8 μM), and a 28-OA-β-G group (28-OA-β-G 8 μM). The control group was added with a MEM medium, while the other groups were added with the corresponding doses of LPS and 28-OA-β-G with the MEN medium as a solvent, and incubated in a 5% CO2, 37° C. constant-temperature incubator for 24 hours. Immunofluorescence imaging was performed after a series of treatments.

Compound: Nc1ccc(O)c(C(=O)O)c1 [5-ASA, 5-aminosalicylic acid, reference compound]
- IL-6 level [1]: significantly decreased
- TNF-α level [1]: significantly decreased
- iNOS level [1]: significantly decreased
- weight loss rate ([2]; 5-ASA 100 mg/kg): significantly reduced
- spleen coefficient ([2]; positive drug group, 5-ASA 100 mg/kg, compared with model group): significantly reduced

Compound: CC1(C)CC[C@]2(C(=O)O[C@@H]3O[C@H](CO)[C@@H](O)[C@H](O)[C@H]3O)CC[C@]3(C)C(=CC[C@@H]4[C@@]5(C)CC[C@H](O)C(C)(C)[C@@H]5CC[C@]43C)[C@@H]2C1 [28-OA-β-G, Oleanolic acid-28-O-β-D-glucopyranoside]
- serum FD4 concentration (FD4 permeability) [3]: significantly reduced
- TEER value [4]: significantly increased
- anti-inflammatory activity (TNF-α, IL-6, iNOS levels), comparison among compounds [5]: best anti-inflammatory activity among the high-dose administration groups
- ultrastructure of colonic mucosa cells (transmission electron microscope) [6]: restored the integrity of intestinal mucosa cells
- MDA level ([1]; colon): dose-dependently reduce
- MPO level ([1]; colon): dose-dependently reduce
- SOD level ([1]; colon): increased
- IL-6 level [1]: significantly decreased
- TNF-α level [1]: significantly decreased
- iNOS level [1]: significantly decreased
- weight loss rate ([2]; 5-ASA 100 mg/kg): significantly reduced
- weight changes, relation to dose ([2]; 28-OA-β-G 5, 10, 20 mg/kg gavage): positively correlated with the increase in dose
- spleen coefficient ([2]; 28-OA-β-G high-dose group, 20 mg/kg, compared with model group): significantly reduced
- spleen coefficient ([2]; 28-OA-β-G medium-dose group, 10 mg/kg, compared with model group): significantly reduced
- weight changes ([2]; 28-OA-β-GH group, 20 mg/kg gavage): tended towards the control group
- anti-ulcerative-colitis activity (overall conclusion) ([2]; DSS-induced UC model, compared with positive control 5-ASA): significant anti-ulcerative-colitis activity which was not statistically different from that of the positive control group of 5-ASA
- DAI score compared to the 5-ASA group ([2]; Day 10, 28-OA-β-GH group, 20 mg/kg, 5-ASA 100 mg/kg): no significant difference compared to the 5-ASA group
- DAI score ([2]; Day 10, 28-OA-β-GH group, 20 mg/kg, compared with model group): significantly lower than that in the model group
- colon length (degree of colon damage) ([2]; oral administration of 28-OA-β-G 5, 10, 20 mg/kg, compared with model group): effectively alleviated
- distribution on the cell membrane and expression of the four tight junction proteins (ZO-1, Occludin, Claudin-1, E-cadherin) ([7]; LPS 1 μg/ml + 28-OA-β-G 2, 4, 8 μM, as dose increased): regained their normal distribution on the cell membrane and also increase the expression
- expression of the four tight junction proteins (ZO-1, Occludin, Claudin-1, E-cadherin) ([7]; normal cells without LPS, 28-OA-β-G alone 8 μM): not affected
